Here are results for 3 compounds from article PMC7290078, “Agonist bias and agonist‐dependent antagonism at corticotrophin releasing factor receptors” (Pharmacology Research & Perspectives, 2020).

Entries after “also recorded” stand apart in the source; their conditions may differ. No end group written: not given here.

Common to all, as to assay type: cell-based
One assay has as its system calcitonin receptor. The experiment in a line: Antagonism of calcitonin-mediated IP1 accumulation in Cos7 cells expressing the human calcitonin receptor. The conditions noted are these: 100 µmol/L; n = 3. From the text: (§1) Plasmids containing hCRF1α and hCRF2α (GenBank accession numbers AY457172 and AY449734) were obtained from the cDNA Resource Centre (Bloomsburg University) and are referred to as CRF1 and CRF2 in this manuscript. Hemagglutinin (HA) epitope‐tagged human Calcitonin (CT) receptor (CT(a) splice variant) and myc‐tagged human RAMP1 were used as described previously. ^27 HA‐tagged human calcitonin receptor‐like receptor (CLR), N‐terminal FLAG‐tagged human RAMP3 and N‐terminal myc‐tagged human RAMP3 were a gift from Professor David Poyner (Aston University) and Professor Patrick Sexton (Monash University), respectively. […]
(§2) Cos7, HEK‐293S, and HEK‐293T cells were cultured as described previously. ^28 , ^29 Cos7 cells were originally supplied by the ATCC to Associate Professor Nigel Birch (University of Auckland). […] For transfection, cells were counted (Countess CounterTM; Life Technologies) and plated at a density of 20 000 cells per well in 96‐well plates. […]
(§3) The IP‐one Gq assay kit (Cisbio) was used to quantify accumulated myo‐inositol‐1‐phosphate (IP1), a by‐product of IP3 produced after receptor‐mediated Gαq activation in Cos7 and HEK‐293S cells. […] Fifteen microliters of sample was then transferred to a 384‐well optiplate and read by an Envision plate reader (PerkinElmer). IP1 concentrations were calculated from a standard curve generated in duplicate. […]

For assay [1], the target named is T1, CRF1 receptor (hCRF1α) (Homo sapiens, UniProt P34998).
T1 construct: host or cells: Cos7 cells, transient transfection (PEI), pcDNA3.0/3.1 vector
T1 sequence (P34998 24-415): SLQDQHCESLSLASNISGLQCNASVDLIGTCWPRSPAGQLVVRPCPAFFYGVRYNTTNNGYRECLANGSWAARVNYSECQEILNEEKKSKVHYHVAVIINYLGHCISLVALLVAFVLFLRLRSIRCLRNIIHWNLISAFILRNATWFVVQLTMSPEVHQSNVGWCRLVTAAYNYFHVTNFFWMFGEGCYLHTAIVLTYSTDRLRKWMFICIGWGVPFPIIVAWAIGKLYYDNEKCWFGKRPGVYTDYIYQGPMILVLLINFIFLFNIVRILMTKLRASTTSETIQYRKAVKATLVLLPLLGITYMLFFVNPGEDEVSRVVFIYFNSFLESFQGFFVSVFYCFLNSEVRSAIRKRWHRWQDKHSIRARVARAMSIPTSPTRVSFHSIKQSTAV
The experiment in a line: Antagonism of agonist-mediated cAMP accumulation in Cos7 cells expressing CRF1 receptors. The note with it: for allosteric effect α / effect on agonist efficacy β: CRF1, operational model of allosterism; for antagonist potency (pKB): hCRF1α, global Schild analysis, mean ± SEM. For orientation: Cyclic AMP is a second messenger, typically raised through Gs and lowered through Gi signalling.

The next assay concerns the target T2, CRF2 receptor (hCRF2α) (Homo sapiens, UniProt Q13324).
T2 construct: host or cells: Cos7 cells, transient transfection (PEI), pcDNA3.0/3.1 vector
T2 sequence (Q13324 1-411): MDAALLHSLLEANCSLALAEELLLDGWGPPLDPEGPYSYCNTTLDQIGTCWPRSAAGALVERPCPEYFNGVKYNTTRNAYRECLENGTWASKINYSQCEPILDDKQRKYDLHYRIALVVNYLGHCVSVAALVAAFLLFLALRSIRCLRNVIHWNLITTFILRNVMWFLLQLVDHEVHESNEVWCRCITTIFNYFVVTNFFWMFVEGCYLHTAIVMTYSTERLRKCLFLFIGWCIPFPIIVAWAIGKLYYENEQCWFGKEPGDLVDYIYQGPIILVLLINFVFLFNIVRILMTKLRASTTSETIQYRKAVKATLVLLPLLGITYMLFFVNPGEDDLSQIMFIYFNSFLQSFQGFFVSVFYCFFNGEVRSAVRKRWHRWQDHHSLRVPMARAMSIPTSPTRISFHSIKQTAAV
In words: IP1 accumulation (IP-one Gq) in Cos7 cells transfected with hCRF2α, agonist stimulation. From the text: Plasmids containing hCRF1α and hCRF2α (GenBank accession numbers AY457172 and AY449734) were obtained from the cDNA Resource Centre (Bloomsburg University) and are referred to as CRF1 and CRF2 in this manuscript. Hemagglutinin (HA) epitope‐tagged human Calcitonin (CT) receptor (CT(a) splice variant) and myc‐tagged human RAMP1 were used as described previously. ^27 HA‐tagged human calcitonin receptor‐like receptor (CLR), N‐terminal FLAG‐tagged human RAMP3 and N‐terminal myc‐tagged human RAMP3 were a gift from Professor David Poyner (Aston University) and Professor Patrick Sexton (Monash University), respectively. N‐terminal FLAG‐tagged human RAMP2 was used as described previously. ^28 All receptors and RAMPs were cloned in pcDNA3.0 or pcDNA3.1 plasmid vectors. All plasmid inserts were sequenced at the Centre for Genomics, Proteomics and Metabolomics (University of Auckland) and the sequences were verified prior to use.
Cos7, HEK‐293S, and HEK‐293T cells were cultured as described previously. ^28 , ^29 Cos7 cells were originally supplied by the ATCC to Associate Professor Nigel Birch (University of Auckland). HEK‐293S cells were a gift from Professor David Poyner (Aston University) and HEK‐293T cells a gift from Professor John Taylor (University of Auckland). Briefly, all cell lines were cultured in Dulbecco's Modified Eagle Medium (DMEM) supplemented with 8% heat inactivated fetal bovine serum (FBS) and maintained in a humidified incubator at 37°C with 5% CO2. For transfection, cells were counted (Countess CounterTM; Life Technologies) and plated at a density of 20 000 cells per well in 96‐well plates. The cells were transiently transfected 48 hours prior to assaying using polyethylenimine (PEI), as described previously. ^28 , ^29 In all experiments a total of 0.25 μg DNA was transfected per well. In the majority of experiments 0.25 μg DNA of receptor‐containing plasmid or the pcDNA3.1 plasmid without an insert was used. For experiments involving RAMPs, 0.125 μg of receptor DNA and 0.125 μg of RAMP‐containing plasmid DNA were transfected to give a 1:1 ratio of receptor to RAMP. Where the RAMP or receptor were transfected alone, the ratio of DNA was made up with the pcDNA3.1 plasmid.
The IP‐one Gq assay kit (Cisbio) was used to quantify accumulated myo‐inositol‐1‐phosphate (IP1), a by‐product of IP3 produced after receptor‐mediated Gαq activation in Cos7 and HEK‐293S cells. Briefly, culture media was removed and replaced with DMEM containing 0.1% BSA for 30 minutes at 37°C. Cells were then incubated with media containing 50 mmol/L lithium chloride (LiCl) for an additional 0‐120 minutes (time courses) or 90 minutes at 37°C in the presence or absence of an antagonist. Agonist concentrations of 1 pmol/L to 10 µmol/L were used for agonist only assays or 10 pmol/L to 10 µmol/L concentrations for antagonist experiments. After cell stimulation, 14 µL of stimulation buffer was added to each well. Three microlitres of each detection antibody were added in turn to the plate and incubated at room temperature for 1 hour. Fifteen microliters of sample was then transferred to a 384‐well optiplate and read by an Envision plate reader (PerkinElmer). IP1 concentrations were calculated from a standard curve generated in duplicate.
In all experiments the position of peptides and antagonists (pharmacology) or transfected receptors (ELISAs) on assay plates was randomized during each independent experiment, which are independent biological replicates. […]

Assay [2] concerns the target T1, CRF1 receptor (hCRF1α). The experiment in a line: IP1 accumulation (IP-one Gq) in Cos7 cells transfected with hCRF1α, agonist stimulation.
Description: as §1, §2, §3

For `CCC(CC)Nc1cc(C)nc(Oc2c(C)cc(C)cc2C)c1C` [CP‐376,395], the “effect on IP1 accumulation at the calcitonin receptor” value in the assay with calcitonin receptor is recorded as “no effect on IP1 accumulation at the calcitonin receptor”. Further, at CRF1 receptor (hCRF1α) [1], the “partial agonism / intrinsic activity” value is given as “No intrinsic activity; also recorded: no evidence of partial agonism”. In addition, the “effect of pre‐incubation on antagonism” value on CRF1 receptor (hCRF1α) [1] (75 minute pre‐incubation, preliminary cAMP antagonism experiment) is “did not increase antagonism or result in a reduction of E max”. Moreover, the “effect on agonist E max” value on CRF1 receptor (hCRF1α) [1] (CRF and UCN1‐mediated cAMP, CRF1 receptor, F tests) is listed as “no significant difference in E max values”. In addition, the “allosteric effect α” value at CRF1 receptor (hCRF1α) [1] (agonist CRF, cAMP) is given as 0.005; at CRF1 receptor (hCRF1α) [1] (agonist UCN1, cAMP) it was 0.03. Further, the “effect on agonist efficacy β” value at CRF1 receptor (hCRF1α) [1] (agonist CRF, cAMP) stood at 0.63; at CRF1 receptor (hCRF1α) [1] (agonist UCN1, cAMP), 0.63. Further, the “antagonist potency (pKB)” value on CRF1 receptor (hCRF1α) [1] (agonist CRF, cAMP, n = 5) amounted to 6.90 ± 0.20; at CRF1 receptor (hCRF1α) [1] (agonist UCN1, cAMP, n = 5 (CP‐376,395), n = 3 (astressin2B)), 5.32 ± 0.14. Besides, the “potency at CRF1 receptor compared to CRF2 receptor” value on CRF1 receptor (hCRF1α) [1] (antagonism of CRF‐induced cAMP signaling) was “at least 800 fold”; on CRF1 receptor (hCRF1α) [1] (antagonism of UCN1‐induced cAMP signaling), at least 20 fold. Further, at CRF1 receptor (hCRF1α) [1] (cAMP accumulation), the mode of antagonism result is “competitive antagonist of cAMP accumulation”.
The term EC50 denotes the midpoint of the concentration-response curve. As for “DNPSLSIDLTFHLLRTLLELARTQSQRERAEQNRIIFDSV-NH2 [UCN1]”, the half-maximal effective concentration (EC50) was 4.68 nM at CRF2 receptor (hCRF2α) (IP1, hCRF2α, Cos7, 90 min at 37°C, 50 mmol/L LiCl, 1 pmol/L to 10 µmol/L agonist, mean ± SEM, n = 5) and 7.76 nM at CRF1 receptor (hCRF1α) [2] (IP1, hCRF1α, Cos7, 90 min at 37°C, 50 mmol/L LiCl, 1 pmol/L to 10 µmol/L agonist, mean ± SEM, n = 5).
Turning to “IVLSLDVPIGLLQILLEQARARAAREQATTNARILARVGHC-NH2 (C-terminus assumed) [UCN2]”, the “concentration‐dependent increase in IP1 accumulation” value is “concentration‐dependent increases” at CRF2 receptor (hCRF2α) (CRF2 receptor); “not UCN2 and UCN3 exhibited a concentration‐dependent increase” on CRF1 receptor (hCRF1α) [2] (CRF1 receptor). Moreover, the Hill slope entry at CRF2 receptor (hCRF2α) (IP1, CRF2 receptor) is recorded as “not significantly different from one”. Moreover, the “Δlog(τ/K A) (relative efficacy)” value on CRF2 receptor (hCRF2α) (IP1, hCRF2α, reference agonist UCN1, mean ± SEM, n = 5) is −1.42 ± 0.13. In addition, the “ΔΔlog(τ/K A) (signaling bias)” value on CRF2 receptor (hCRF2α) (IP1 relative to cAMP, hCRF2α, reference agonist UCN1, mean ± SEM, n = 5) is −0.87 ± 0.23.
